# Measured values: patent US20250120987A1, “METHOD FOR TREATING CANCER USING HUMAN MIT[…] ENZYME 2 INHIBITOR” (priority 2023, published 2025)
# What was measured:
# HL-60 cells [1] = experiment: Cell survival assay; assay type: cell-based, human
# Protocol: (§1) In the following assay, therefore, the NazEA dosage of 150 μM was used.
# MV4-11 cells [2] = experiment: Cell survival assay; assay type: cell-based, human
# Protocol: as §1
# THP-1 cells [3] = experiment: Cell survival assay; assay type: cell-based, human
# Protocol: as §1
# HL-60 cells [4] = experiment: Apoptosis rate (Annexin V, flow cytometer); assay type: cell-based, human; conditions: 150 μM
# Protocol: (§2) HL-60 cells, THP-1 cells, and MV4-11 cells were each divided into two groups, namely a vehicle group to be cultured in an RPMI culture medium and a group to be cultured in an RPMI culture medium containing 150 μM Na2EA. After culturing for 24 hours, the culture media were renewed. After culturing for another 48 hours, a commercially available apoptosis detection kit (Annexin V Apoptosis Detection Kit) and flow cytometer were used to analyze the apoptosis rates of the cells, and the results are shown in FIG. 34. In addition, a commercially available cell viability assay kit (CellTiter-Glo® 2.0 Cell Viability Assay Kit), a NAD/NADH-Glo™ assay kit, a commercially available intracellular ROS assay kit (#cat.MAK143, Sigma-Aldrich, St. Louis, MO, USA), and a commercially available pyruvate colorimetric/fluorometric assay kit were used to analyze the NADPH, ROS, and ATP contents of each group of cells, and the results are shown in FIG. 35 to FIG. 37.
# MV4-11 cells [5] = experiment: Apoptosis rate (Annexin V, flow cytometer); assay type: cell-based, human; conditions: 150 μM
# Protocol: as §2
# THP-1 cells [6] = experiment: Apoptosis rate (Annexin V, flow cytometer); assay type: cell-based, human; conditions: 150 μM
# Protocol: as §2
# HL-60 cells [7] = experiment: Metabolite contents of AML cells (NADPH, ROS, ATP, pyruvate, NADH, glutamic acid); assay type: cell-based, human; conditions: 150 μM
# Protocol: as §2
# (§3) Furthermore, the cells in each group were stained with ATP-Red Live Cell Dye (BioTracker™ ATP-Red Live Cell Dye) and were observed and quantified under a fluorescence microscope, with the quantification results shown in FIG. 38. The oxygen consumption rate of each group of cells was also determined in the same way as in example 6, with the introduction of different stress testing conditions, and the results are shown in FIG. 39 to FIG. 44.
# (§4) Besides, the […], pyruvate, NAD^+, NADH, and glutamic acid contents of each group of cells were analyzed with a NAD/NADH-Glo™ assay kit, a commercially available pyruvate colorimetric/fluorometric assay kit, and a commercially available Glutamine/Glutamate-Glo™ assay kit (#Cat. J8021; Promega, Madison, WI, USA) in the same way as in example 9, and the results are shown in FIG. 45 to FIG. 48.
# MV4-11 cells [8] = experiment: as above; assay type: cell-based, human; conditions: 150 μM
# Protocol: as §2, §3, §4
# THP-1 cells [9] = experiment: as above; assay type: cell-based, human; conditions: 150 μM
# Protocol: as §2, §3, §4
# HL-60 cells [10] = experiment: Oxygen consumption rate of AML cells; assay type: cell-based, human; conditions: 150 μM
# THP-1 cells [11] = experiment: Oxygen consumption rate of AML cells; assay type: cell-based, human; conditions: 150 μM
# MV4-11 cells [12] = experiment: Oxygen consumption rate of AML cells; assay type: cell-based, human; conditions: 150 μM
# HL-60 cells [13] = experiment: Mass spectrometric analysis of metabolic intermediates; assay type: cell-based, human; conditions: 150 μM, UPLC-MS
# Protocol: The Na2EA-treated HL-60 cells (1×10^7 cells) and the HL-60 cells untreated with NazEA (1×10^7 cells) in example 10 were taken, added into 1 mL of 80% methanol, and centrifuged at 4° C. and 12,000×g for 10 minutes. After the supernatants were evaporated with nitrogen gas, an analysis was performed using a Waters ultra-high performance liquid chromatograph coupled with Waters Xevo TQ-S MS (Waters Corp. Milford, MA, USA).
# THP-1 cells [14] = experiment: Animal test, ASID mice transplanted with THP-1 cells; assay type: in vivo; conditions: 4 mg/kg, intravenous, day 21
# Protocol: (§5) A plurality of 8-week-old ASID mice (or mice with advanced severe immunodeficiency, or more specifically NOD.Cg-Prkde^scidIl2rg^tm1Wjl/YckNarl mice) were randomly divided into 6 groups. Each group of mice was intravenously injected with one of a plurality of differently treated AML cell variants at a frequency of 5 days per week for 4 weeks. The AML cell variants injected into the 6 groups of mice are as follows: • Group 1-1: THP-1 cells • Group 2-1: THP-1 cells with EA (at a dosage of 4 mg/kg) • Group 3-1: THP-1 cells with Na2EA (at a dosage of 4 mg/kg) • Group 1-2: MV4-11 cells • Group 2-2: MV4-11 cells with EA (at a dosage of 4 mg/kg) • Group 3-2: MV4-11 cells with Na2EA (at a dosage of 4 mg/kg)
# (§6) On the 21st day of the test, peripheral blood was collected from the submandibular vein of the mice, and bone marrow was collected as well. The blood and bone marrow were stained with specific markers (CD33 and CD45) and then reacted with a fluorescent antibody, before the CD33+ or CD45^+-stained cells were quantified with a flow cytometer.
# MV4-11 cells [15] = experiment: Animal test, ASID mice transplanted with MV4-11 cells; assay type: in vivo; conditions: 4 mg/kg, intravenous, day 21
# Protocol: as §5, §6
smiles,measurement,setting,value
"O=C(O)c1cc2ccccc2c(Cc2c([O-])c(C(=O)O)cc3ccccc23)c1[O-].[Na+].[Na+] [Na2EA, disodium embonate]",IC50,HL-60 cells [1],~120 µM
same,IC50,MV4-11 cells [2],~120 µM
same,IC50,THP-1 cells [3],~120 µM
same,apoptosis rate,HL-60 cells [4],60-75%
same,apoptosis rate,MV4-11 cells [5],60-75%
same,apoptosis rate,THP-1 cells [6],60-75%
same,ATP content,HL-60 cells [7],greatly reduced
same,NAD+/NADH ratio,HL-60 cells [7],increased
same,NADH content,HL-60 cells [7],reduced
same,NADPH content,HL-60 cells [7],greatly reduced
same,ROS steady state,HL-60 cells [7],destroyed
same,glutamic acid content,HL-60 cells [7],increased
same,pyruvate content,HL-60 cells [7],reduced
same,ATP content,MV4-11 cells [8],greatly reduced
same,NAD+/NADH ratio,MV4-11 cells [8],increased
same,NADH content,MV4-11 cells [8],reduced
same,NADPH content,MV4-11 cells [8],greatly reduced
same,ROS steady state,MV4-11 cells [8],destroyed
same,glutamic acid content,MV4-11 cells [8],increased
same,pyruvate content,MV4-11 cells [8],reduced
same,ATP content,THP-1 cells [9],greatly reduced
same,NAD+/NADH ratio,THP-1 cells [9],increased
same,NADH content,THP-1 cells [9],reduced
same,NADPH content,THP-1 cells [9],greatly reduced
same,ROS steady state,THP-1 cells [9],destroyed
same,glutamic acid content,THP-1 cells [9],increased
same,pyruvate content,THP-1 cells [9],reduced
same,mitochondrial proton leak,HL-60 cells [10],lowered
same,oxygen consumption rate,HL-60 cells [10],lowered
same,yield of ATP by the mitochondrial electron transport chains,HL-60 cells [10],lowered
same,mitochondrial proton leak,THP-1 cells [11],lowered
same,oxygen consumption rate,THP-1 cells [11],lowered
same,yield of ATP by the mitochondrial electron transport chains,THP-1 cells [11],lowered
same,mitochondrial proton leak,MV4-11 cells [12],lowered
same,oxygen consumption rate,MV4-11 cells [12],lowered
same,yield of ATP by the mitochondrial electron transport chains,MV4-11 cells [12],lowered
same,fructose-6-phosphate (F-6-P) content,HL-60 cells [13],suppress
same,glucose-1-phosphate (G-1-P) content,HL-60 cells [13],suppress
same,glucose-6-phosphate (G-6-P) content,HL-60 cells [13],suppress
same,glutamic acid content,HL-60 cells [13],increasing
same,glutamine content,HL-60 cells [13],increasing
same,AML cells in mice (CD33+ / CD45+ stained cells in peripheral blood and bone marrow),THP-1 cells [14],reduce
same,effectiveness in reducing AML cells compared with EA,THP-1 cells [14],more effective in reducing AML cells than EA
same,AML cells in mice (CD33+ / CD45+ stained cells in peripheral blood and bone marrow),MV4-11 cells [15],reduce
same,effectiveness in reducing AML cells compared with EA,MV4-11 cells [15],more effective in reducing AML cells than EA
